Data reported in patent US10282514B2, “Method of constructing a data architecture” (The Procter & Gamble Company, priority 2012, dated 2019).

Assays:
[1] = system: hyperpigmented spots; assay: 9-week randomized, double-blind, vehicle-controlled, split-face tone benefit study; type: in vivo, human; settings: 0.05% in SC-99 vehicle, compared to vehicle
Text: This Example provides evidence of the advantages of using composite signatures and illustrates clinical affirmation of the C-map model for predicting efficacy of skin-lightening agents. This Example supports embodiments related to composite signatures (as described at the end of Example 3). An illustrative “Skin Tone” Signature developed from a genomics study using a composite skin-lightening benchmark agent signature is derived from Niacinamide, Hexamidine, Sepiwhite, and NAG. The signature is used to query C-map and generate a list of potential skin-lightening agents. A top hit, Chlorhexidine Diactate (CD) is entered into clinical testing for confirmation of efficacy. The control for clinical efficacy is a 5% Niacinamide+1% Sepiwhite formulation in the control vehicle.
Primary endpoints are changes in color spot area fraction (image analysis) and melanin spot area fraction (NC2) from baseline. Secondary endpoints are changes from baseline in L*a*b (color image analysis), mean melanin gray scale (NC2), and melanin evenness (NC2). Texture area fraction and pore area fraction are also evaluated to explore impact on other aspects relating to overall skin tone. […] Statistically significant superiority to the high efficacy benchmark skin active agent to vehicle performance is the clinical success criteria.
Study Design: The experimental protocol included a 9-week (1-week preconditioning & 8-week treatment), randomized, double-blind, round robin, vehicle-controlled, split-face tone benefit study. The subject population included 330 Chinese females, 25-55 years old with hyperpigmented spots. 318 subjects completed the entire study. […] Olay Complete SPF 15 UV Moisturizing Lotion is concomitantly used during pre-conditioning and treatment. 0.5 g each test product per half-face (forehead to jaw line; ˜4 mg/cm^2) is dosed 2× a day (morning/evening). Color SAF and treatment area, Melanin SAF, gray scale, evenness by NC2, and additional measurement of Fine Lines and Wrinkle and Texture are by REAL 3.01A. Data collection points include baseline, and ends of weeks 4, 6 and 8. […]

[2] = system: tert-Keratinocyte (tKC) cell line; assay: C-map query with the tone composite benchmark signature; type: cell-based, human; settings: composite signature of Niacinamide, Sepiwhite, NAG, Hexamidine
Description: (§1) Individual experiments (referred to as batches) generally comprise 30 to 96 samples analyzed using Affymetrix GeneChip® technology platforms, containing 6 replicates of the vehicle control (e.g., DSMO), 2 replicate samples of a positive control that gives a strong reproducible effect in the cell type used, and samples of the test material/perturbagen. Replication of the test material is done in separate batches due to batch effects. In vitro testing was performed in 6-well plates to provide sufficient RNA for GeneChip® analysis (2-4 μg total RNA yield/well).
Human telomerized keratinocytes (tKC) were obtained from the University of Texas, Southwestern Medical Center, Dallas, Tex. tKC cells were grown in EpiLife® media with 1× Human Keratinocyte Growth Supplement (Invitrogen, Carlsbad, Calif.) on collagen I coated cell culture flasks and plates (Becton Dickinson, Franklin Lakes, N.J.). Keratinocytes were seeded into 6-well plates at 20,000 cells/cm^2 24 hours before chemical exposure. Human skin fibroblasts (BJ cell line from ATCC, Manassas, Va.) were grown in Eagle's Minimal Essential Medium (ATCC) supplemented with 10% fetal bovine serum (HyClone, Logan, Utah) in normal cell culture flasks and plates (Corning, Lowell, Mass.). BJ fibroblasts were seeded into 6-well plates at 12,000 cells/cm^2 24 hours before chemical exposure. […]

[3] = system: teleomerized human keratinocytes (tKC); assay: C-map query with the Retinoic Acid/Keratinocyte 200 benchmark signature; type: cell-based; settings: Retinoic Acid Keratinocyte RA_200 signature
Description: as §1
Human telomerized keratinocytes (tKC) were obtained from the University of Texas, Southwestern Medical Center, Dallas, Tex. tKC cells were grown in EpiLife® media with 1× Human Keratinocyte Growth Supplement (Invitrogen, Carlsbad, Calif.) on collagen I coated cell culture flasks and plates (Becton Dickinson, Franklin Lakes, N.J.). Keratinocytes were seeded into 6-well plates at 20,000 cells/cm^2 24 hours before chemical exposure. […]
(a) Tert-keratinocytes (tKC) RA Signatures. […] Cells were treated with 1 uM tRA for 6 hr, tested in triplicate, with triplicate DMSO controls, and analyzed on HG-U133A GeneChips. […]

SMILES | Basal skin tone ([1]; week 8) | NC2 Melanin evenness test ([1]; weeks 6 and 8) | spot area fraction color test ([1]; topical 2x a day, week 8) | connectivity to tone composite benchmark signature query [2] | average C-map score [3]
CC(=O)O.CC(=O)O.NC(=N\CCCCCC/N=C(N)/N=C(\N)Nc1ccc(Cl)cc1)/N=C(\N)Nc1ccc(Cl)cc1 [CD, Chlorhexidine Diacetate] | superiority | superiority to the vehicle | significantly fewer spots | top connectivity hit | 
CC1=C(/C=C/C(C)=C/C=C/C(C)=C/C(=O)O)C(C)(C)CCC1 [Retinoic acid, all-trans-retinoic acid] |  |  |  |  | highest score
